Literature values, collected in patent US20230085607A1, “IVERMECTIN COMPOSITIONS FOR TREATMENT OF COVID-19” (priority 2021, published 2023).
Like-named read-outs stand apart in the source and are kept apart here.

Experiments:
[1] = system: mice challenged with endotoxin (LPS O111:B4) or live Escherichia coli; conditions: for concentration of IL-1 α: controls 1187.0±278.64
[2] = system: mice with polymicrobial sepsis (CL2P); conditions: 10 mg/kg intraperitoneally, monitored 72 h after CL2P
[3] = system: rats subjected to myocardial ischemia and reperfusion; conditions: 10 mg/kg intravenously then 10 mg/kg/h infusion
[4] = system: lipopolysaccharide-activated macrophages
[5] = system: rats with polymicrobial sepsis (CL2P); conditions: 10 mg/kg intraperitoneally at 1 and 6 h after CL2P and every 12 h
[6] = system: mice with LPS-induced ARDS
[7] = system: mice with lethal endotoxemia or lethal sepsis
[8] = system: mice with experimental colitis
[9] = system: LPS-stimulated primary peritoneal macrophages
[10] = system: LPS-challenged macrophages; conditions: 0 to 50 μM, 6 h pre-incubation, LPS 24 h
[11] = system: mice with LPS-induced ARDS; remark: listed apart in the source
[12] = 50 and 100 mg/kg/day, compared with MD group
[13] = 50 mg/kg, LPS 5 mg/kg 3 days later

Q: Which results are given for `CC1=CC(=O)C(C(C)C)=CC1=O` [thymoquinone]?
A: lipopolysaccharide-induced inflammatory reactions (nitric oxide): suppressed effectively; concentration of nitric oxide (nitric oxide; lipopolysaccharide-induced): reduced significantly; concentration of IL-1 α ([1]; 0.75 mg/kg dose): 310.8 ± 70.93 pg/mL; IL-10 levels ([1]; 0.75 mg/kg, controls 5505.2±333.96): 2885.0 ± 553.98 pg/mL; concentration of IL-1 α ([1]; 1 mg/kg group): 428.3 ± 71.32 pg/mL; levels of IL-2 ([1]; P=0.0851): relatively lower; levels of TNF-α ([1]; P=0.1817): relatively lower; mortality reduction ([1]; mice, sepsis): 80-90%; renal and hepatic biomarker profiles ([1]; mice, sepsis): improved

Q: For epigallocatechin-3-gallate [EGCG], which survival [2] is on record?
A: Its survival is “significantly improved”.

Q: And the myeloperoxidase activity [3]?
A: The myeloperoxidase activity was “reduced”.

Q: And the myocardial damage [3]?
A: The myocardial damage was “reduced”.

Q: And the “plasma IL-6 levels” value [3]?
A: The value was “decreased”.

Q: What about the “plasma creatine phosphokinase levels” value [3] of the same compound?
A: Its value is “decreased”.

Q: And the “disappearance of inhibitor kappaB from cytosolic fraction” value [4]?
A: Its value is “blocked”.

Q: What about the NO production ([4]; cells cotreated with EGCG and LPS) of the same compound?
A: The NO production was “Inhibition”.

Q: And the “activation of nuclear factor-kappaB” value ([4]; electrophoretic mobility shift assay)?
A: Its value is “blocked”.

Q: And the “hypotension (mean arterial blood pressure)” value [5]?
A: Its value is “significantly improved”.

Q: What about the “TNF-α-induced nuclear factor-κB (NF-κB) activity” value (macrophage foam cells) of the same compound?
A: Its value is “inhibition”.

Q: And the “TNF-α-induced downregulation of ABCA1 and decrease in cholesterol efflux to apoA1” value (macrophage foam cells; pretreatment)?
A: Its value is “attenuated”.

Q: What about the “changes in blood gases” value ([6]; 10 mg/kg ip) of the same compound?
A: The value was “decreased”.

Q: And the “expression of IκB-α” value ([6]; 10 mg/kg ip)?
A: The value was “increased”.

Q: And the “expression of TLR-4, MyD88, TRIF and p-p65 in the lung tissue” value ([6]; 10 mg/kg ip)?
A: The value was “alleviated”.

Q: What about the “expression of TNF-α, IL-1β and IL-6 in the lung, serum and bronchoalveolar lavage fluid” value ([6]; 10 mg/kg ip) of the same compound?
A: The value was “significantly decreased”.

Q: What about the “expression of p65” value ([6]; 10 mg/kg ip) of the same compound?
A: Its value is “no influence”.

Q: What about the histological lesions ([6]; 10 mg/kg ip) of the same compound?
A: Its histological lesions is “reduced”.

Q: What about the “myeloperoxidase (MPO) activity” value ([6]; 10 mg/kg ip) of the same compound?
A: Its value is “reduced”.

Q: What about the wet-to-dry weight ratios ([6]; 10 mg/kg ip) of the same compound?
A: The wet-to-dry weight ratios was “reduced”.

Q: What about the “LPS-induced ARDS” value ([6]; 10 mg/kg ip 1 h before LPS 10 mg/kg ip) of the same compound?
A: Its value is “attenuated”.

Q: And the “rescue from lethal sepsis” value ([7]; first dose 24 hours after cecal ligation and puncture)?
A: Its value is “rescued”.

Q: What about the “protection against lethal endotoxemia” value ([7]; intraperitoneal administration) of the same compound?
A: The value was “protected”.

Q: What about the “systemic accumulation of HMGB1, IL-6 and KC” value ([7]; mouse, in vivo) of the same compound?
A: Its value is “attenuation”.

Q: What about the colonic tissue erosion [8, 12] of the same compound?
A: The colonic tissue erosion was “attenuation”.

Q: And the “disease activity index (DAI)” value [8, 12]?
A: The value was “decreased”.

Q: And the “spleen index (SI)” value [8, 12]?
A: The value was “decreased”.

Q: What about the “HIF-1α and STATS protein expression in the colon” value ([8]; mouse, in vivo) of the same compound?
A: The value was “decreasing”.

Q: And the “plasma levels of IL-10 and TGF-β1” value ([8]; mouse, in vivo)?
A: Its value is “increasing”.

Q: What about the “release of IL-6 and IL-17” value ([8]; plasma) of the same compound?
A: Its value is “reduce”.

Q: For `C[S+]([O-])CCCCN=C=S` (centres unmarked) [sulforaphane, 1-isothiocyanato-4-(methylsulfinyl)-butane], which HO-1 expression ([9]; LPS-stimulated Nrf2 (+/+) primary peritoneal macrophages) is on record?
A: The HO-1 expression was “significantly augmented”.

Q: What about the “LPS-stimulated mRNA expression, protein expression and production of TNF-alpha, IL-1beta, COX-2 and iNOS” value ([9]; Nrf2 (+/+) primary peritoneal macrophages, pretreatment) of the same compound?
A: Its value is “potently inhibited”.

Q: And the anti-inflammatory effect ([9]; Nrf2 (−/−) primary peritoneal macrophages)?
A: The anti-inflammatory effect was “attenuated”.

Q: What about the “direct reaction with cytokines or NO” value [10] of the same compound?
A: The value was “neither directly reacted”.

Q: And the “expression of NO and cytokines” value [10]?
A: Its value is “able to prevent”.

Q: What about the “inducible nitric oxide synthase (iNOS) activity” value ([11]; 50 mg/kg) of the same compound?
A: Its value is “significantly inhibited”.

Q: And the “nuclear factor-κB protein expression” value ([11]; 50 mg/kg)?
A: Its value is “significantly decreased”.

Q: And the “prostaglandin E2 (PGE2) production” value ([11]; 50 mg/kg)?
A: Its value is “significantly inhibited”.

Q: What about the “serum levels of interleukin-6 (IL-6)” value ([11]; 50 mg/kg, ELISA) of the same compound?
A: The value was “significantly decreased”.

Q: What about the “serum levels of tumor necrosis factor-α (TNF-α)” value ([11]; 50 mg/kg, ELISA) of the same compound?
A: Its value is “significantly decreased”.

Q: What about the “lactate dehydrogenase (LDH) activity” value [11, 13] of the same compound?
A: Its value is “significantly decreased”.

Q: And the “wet-to-dry ratio of the lungs” value [11, 13]?
A: The value was “significantly decreased”.

Q: And the “cyclooxygenase-2 (COX-2) protein expression” value ([11]; 50 mg/kg, western blot)?
A: Its value is “significantly inhibited”.

Q: And the “matrix metalloproteinase-9 (MMP-9) protein expression” value ([11]; 50 mg/kg, western blot)?
A: Its value is “significantly inhibited”.

Q: What about the “Nrf2/antioxidant response element (ARE) pathway” value ([11]; pre-treatment) of the same compound?
A: The value was “activated”.
